This passage reports IC50 and inhibition results from US20220017516A1, “LOX INHIBITORS” (THE INSTITUTE OF CANCER RESEARCH: ROYAL CANCER HOSPITAL, priority 2018, published 2022).

SMILES strings stand for the structures. Numbering of substitutions follows the chain as printed. pIC50: −log10 of the molar value. Where two headings read alike, the source gives them in different places. Where only a bound is given, the exact number is not on record here.

One assay addresses T1, LOXL2 (Homo sapiens, UniProt Q9Y4K0).
T1 construct: purchased R&D Systems/Bio-techne
T1 sequence (Q9Y4K0 26-774): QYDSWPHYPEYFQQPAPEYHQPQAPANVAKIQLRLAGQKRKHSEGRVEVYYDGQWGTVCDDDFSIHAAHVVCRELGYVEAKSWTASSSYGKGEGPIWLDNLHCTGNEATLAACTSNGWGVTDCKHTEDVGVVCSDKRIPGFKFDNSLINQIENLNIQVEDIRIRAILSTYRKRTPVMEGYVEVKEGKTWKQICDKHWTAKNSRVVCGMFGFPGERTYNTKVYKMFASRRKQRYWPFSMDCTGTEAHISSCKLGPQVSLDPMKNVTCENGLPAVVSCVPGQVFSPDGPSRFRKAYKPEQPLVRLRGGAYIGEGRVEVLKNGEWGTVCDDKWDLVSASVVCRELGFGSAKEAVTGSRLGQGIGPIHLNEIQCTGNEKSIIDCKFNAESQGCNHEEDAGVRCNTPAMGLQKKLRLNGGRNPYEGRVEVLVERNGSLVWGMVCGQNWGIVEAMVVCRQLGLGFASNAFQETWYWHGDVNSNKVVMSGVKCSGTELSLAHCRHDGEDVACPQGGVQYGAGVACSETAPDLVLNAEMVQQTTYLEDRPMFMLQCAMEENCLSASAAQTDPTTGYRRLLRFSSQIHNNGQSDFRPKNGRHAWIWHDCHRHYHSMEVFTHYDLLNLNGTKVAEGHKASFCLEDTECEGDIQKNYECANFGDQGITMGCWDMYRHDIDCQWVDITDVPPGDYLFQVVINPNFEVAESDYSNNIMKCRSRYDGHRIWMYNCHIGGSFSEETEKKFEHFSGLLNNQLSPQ
In words: LOX isoform activity assay (ROS Glo), LOXL2. It counts as biochemical. How it is done:
(§1) LOX was extracted from pig skin by previously described methods (Shackleton and Hulmes, 1990). LOXL2 and LOXL3 were obtained from R&D Systems/Bio-techne. The Promega ROS Glo assay kit (G8821) was used to assess enzyme activity. Overall, test compound was added to either 384 well assay plates (Greiner) using a Labcyte Echo™ Acoustic Handler or to 96 well plates for a final assay concentration of 100, 30, 10, 3, 1, 0.3, 0.1, 0.03, 0.01 and 0.003 μM final assay concentration. Enzymes were diluted according to specific pre-determined activity in assay buffer (100 mM CHES, pH 9, 0.05% (w/v) pluronic F-127, 0.5% (w/v) BSA, 1 mM MgCl2, 1 M urea, 100 mM NaCl) and added to the plate. For LOXL2, the mixture was incubated for 20 min, 1 h or 20 h; for LOX and LOXL3, incubation time was 1 h. Cadaverine and H2O2 substrate were then added to each well (final assay concentration 19.56 mM and 25 μM respectively) and the plates were incubated for 1.5 h (for LOX) or 1 h (for LOXL2 and LOXL3) at room temperature. Finally, luciferin detection reagent was added and plates were incubated for 20 min at room temperature, protected from light. Luminescence was measured using a BMG LABTECH PHERAstar FS reader and resulting IC50 values were calculated using GraphPad Prism software.
In another setting, LOXL2 enzyme was diluted according to specific pre-determined activity in assay buffer (100 mM CHES, pH 9, 0.05% (w/v) pluronic F-127, 0.5% (w/v) BSA, 1 mM MgCl2, 1 M urea, 100 mM NaCl). Overall, 0.5 μl test compound was added to 40 μl assay buffer+LOXL2 at 100, 30, 10, 3, 1, 0.3, 0.1, 0.03, 0.01 and 0.003 μM (final concentration) in a 96-well white polystyrene, flat bottom plates (Fisher) and incubated for the indicated time at room temperature. 10 μl of assay buffer containing 97.8 mM cadaverine and 125 μM H2O2 substrate (final assay concentration 19.56 mM and 25 μM respectively) were added to each well and plates were incubated for 1 h at room temperature. Finally, 50 μl per well luciferin detection reagent was added and plates were incubated for 20 min at room temperature, protected from light. Luminescence was measured with an integration time of 500 ms per well using a SpectaMax M5 plate reader and resulting IC50 values were calculated using GraphPad Prism software.

For assay [1], the target named is T2, LOX (Sus scrofa, UniProt P45845).
T2 construct: LOX was extracted from pig skin by previously described methods; from tissue; host or cells: pig skin
T2 sequence (P45845 1-249): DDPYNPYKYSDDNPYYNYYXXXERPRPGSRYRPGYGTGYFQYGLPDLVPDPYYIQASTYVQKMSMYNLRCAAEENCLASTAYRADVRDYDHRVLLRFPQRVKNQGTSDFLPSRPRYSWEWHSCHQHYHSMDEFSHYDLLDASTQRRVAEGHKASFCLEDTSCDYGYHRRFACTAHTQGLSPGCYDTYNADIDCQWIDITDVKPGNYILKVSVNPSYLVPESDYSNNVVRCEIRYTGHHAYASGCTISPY
Briefly: LOX isoform activity assay (ROS Glo), LOX. It counts as biochemical, pig. Conditions: 1 h incubation with enzyme. As to the method: as §1

In assay [2] the target is T3, LOX (Mus musculus, UniProt P28301).
T3 construct: Full length LOX cDNA was then PCR cloned into pEGFP-N1 (Clonetech), or biosensor vector proGFP2—N1; expressed in transfected cells; host or cells: MDCK cells grown as cysts on Matrigel
T3 sequence (P28301 163-411): T2 sequence (P45845 1-249) with X20D, X21T, X22Y, Y31N, T80S, S142N, N188A, K202Q, S224T, E231D
In words: LOX activity in cysts assay (roGFP2 LOX biosensor in MDCK cysts). The assay is classed as cell-based. Conditions: LOX; for inhibition at 10 µM: read-out: Cyst LOX @ 10 uM (% inhibition). As to the method:
All cell lines used in this study were purchased from American Type Culture Collection (ATCC). Mycoplasma contamination was routinely monitored by PCR. Cells used were not found to be Mycoplasma positive. MDCK cell lines were cultured in Dulbecco's Modified Eagle Medium (DMEM) supplemented with 10% fetal bovine serum (FBS) and 1% Penicillin Streptomycin solution (Pen Strep). For GFP constructs transfection in MDCK cells, lipofectamine 3000 was used according to manufactures protocols. Cells were either selected with G418 (Life Technologies) at 5 mg/ml. All cell culture reagents were purchased from Life Technologies.
To produce MDCK cysts, cells were cultured on Matrigel (Corning) with 2% Matrigel supplemented in DMEM with 10% FBS. Cysts were allowed to form for 10 days before subsequent studies.
Mouse LOX cDNA was purchased from OriGene. Full length LOX cDNA was then PCR cloned into pEGFP-N1 (Clonetech), or biosensor vector proGFP2—N1 (Hanson, 2004) using the following primers, […] (forward primer) and […] (reverse primer). For the insertion into pEGFP-N1 or proGFP2—N1, Nhel and Xhol restriction sites were added to forward and reverse primers accordingly. Mutant LOX constructs were made using QuickChange II site-directed mutagenesis kit (Agilent Technologies) following manufacture's protocol using LOX-GFP as template. To generate, roGFP2 versions of LOX mutant constructs, LOX mutant cDNA was transferred from pEGFP-N1 to proGFP2—N1 using Nhel and Xhol.
All photomicrographs were taken with a Leica TCS SP8 X confocal system. For LOX biosensor imaging, live MDCK cysts were used. The oxidised biosensor was excited using a 405 nm laser, while the reduced biosensor was excited with a 488 nm laser. Emission of the biosensor was recorded at 500 nm-530 nm range using sequential scans. Ratio images were generated following a published protocol {Kardash, 2011 #376}. Note, while the published protocol generates YFP/CFP ratio images, we used it to generate Oxidised/Reduced (roGFP2 ratio) ratio images. The roGFP2 ratio at the basal surface of MDCK cysts was used to indicate LOX inhibition. LOX inhibitors were added 30 min prior to imaging.
For clarity, readout for DMSO treated cysts represents 0% inhibition (no inhibition) and readout for BAPN at 1 mM is used as 100% inhibition (full inhibition).

Assay [3] concerns the target T4, monoamine oxidase B (MAO-B) (Homo sapiens, UniProt P27338).
T4 construct: purchased Sigma M7441
T4 sequence (P27338 1-520): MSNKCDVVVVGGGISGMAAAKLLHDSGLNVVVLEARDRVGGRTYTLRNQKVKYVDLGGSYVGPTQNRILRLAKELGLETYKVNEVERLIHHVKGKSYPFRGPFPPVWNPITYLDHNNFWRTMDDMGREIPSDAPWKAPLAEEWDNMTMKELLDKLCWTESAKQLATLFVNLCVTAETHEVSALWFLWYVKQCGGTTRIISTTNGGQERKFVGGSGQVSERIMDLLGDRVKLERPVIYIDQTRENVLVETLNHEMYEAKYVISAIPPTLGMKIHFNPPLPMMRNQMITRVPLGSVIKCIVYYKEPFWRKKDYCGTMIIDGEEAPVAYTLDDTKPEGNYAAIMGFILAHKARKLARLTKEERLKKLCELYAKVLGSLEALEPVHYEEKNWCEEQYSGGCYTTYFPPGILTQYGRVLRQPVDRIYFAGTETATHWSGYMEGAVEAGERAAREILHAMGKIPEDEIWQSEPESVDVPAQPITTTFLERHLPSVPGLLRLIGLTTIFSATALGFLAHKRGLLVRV
In words: Amine oxidase activity assay (MAO-Glo), MAO-B. The assay is classed as biochemical. How it is done:
(§2) The Promega MAO-Glo assay kit (V1402) was used to assess monoamine oxidase A (MAO-A) and monoamine oxidase B (MAO-B) activity. MAO substrate was prepared at 80 μM with the specific MAO-A/B reaction buffer. Overall, 0.5 μl test compound was added to 25 μl MAO substrate at 100, 30, 10, 3, 1, 0.3, 0.1, 0.03, 0.01 and 0.003 μM (final concentration) in a 96-well white, flat bottom plate. Overall, 25 μl of 1:520 dilution of MAO-A enzyme (Promega, V1452) or 25 μl of 1:52 dilution of MAO-B enzyme (Sigma, M7441) in specific MAO-A/B reaction buffer was added to each well (enzyme prepared at 2×final concentration) and plates were incubated for 1 h at room temperature. Finally, 50 μl per well luciferin detection reagent was added and plates were incubated for 20 min at room temperature, protected from light. Luminescence was measured with an integration time of 500 ms per well using a SpectaMax M5 plate reader and resulting IC50 values were calculated using GraphPad Prism software.
(§3) In another setting, the DAO and MAO assays were performed in 384-well plates (Greiner) and test compound was added using a Labcyte Echo™ Acoustic Handler for the same final concentrations as in the 96-well setting. Luminescence was measured with BMG LABTECH PHERAstar FS plate reader.

Assay [4] deals with T5, monoamine oxidase A (MAO-A) (Homo sapiens, UniProt P21397).
T5 construct: purchased Promega V1452
T5 sequence (P21397 1-527): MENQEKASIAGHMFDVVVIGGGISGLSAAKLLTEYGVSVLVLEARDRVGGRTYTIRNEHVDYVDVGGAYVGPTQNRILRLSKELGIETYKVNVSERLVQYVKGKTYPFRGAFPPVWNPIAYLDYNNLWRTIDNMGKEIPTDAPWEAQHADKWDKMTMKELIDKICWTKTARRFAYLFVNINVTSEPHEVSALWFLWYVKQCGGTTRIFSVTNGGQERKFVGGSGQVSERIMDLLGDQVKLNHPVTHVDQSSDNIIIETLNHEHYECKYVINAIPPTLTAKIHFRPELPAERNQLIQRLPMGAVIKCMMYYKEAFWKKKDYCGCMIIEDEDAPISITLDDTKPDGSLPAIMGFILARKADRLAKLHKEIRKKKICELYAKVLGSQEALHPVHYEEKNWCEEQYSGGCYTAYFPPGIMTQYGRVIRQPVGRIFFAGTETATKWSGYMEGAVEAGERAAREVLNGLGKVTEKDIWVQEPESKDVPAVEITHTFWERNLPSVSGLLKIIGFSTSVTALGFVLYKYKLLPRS
In words: Amine oxidase activity assay (MAO-Glo), MAO-A. It counts as biochemical. As to the method: as §2, §3

[5] abbreviates: 1 hr incubation with enzyme; read-out: LOXL2 IC50 b) 1 hr.
[6] abbreviates: 20 hr incubation with enzyme; read-out: LOXL2 IC50 c) 20 hr.

The pIC50 is −log10 of the IC50, conventionally taken in molar units. As a reminder, the inhibition is how much of the control response was suppressed. Regarding `CCOc1ccc(N2C[C@H]3CN(C(=O)Nc4ccc(S(=O)(=O)CCN)cc4)C[C@@H]2C(C)(C)C3)cc1` [Example 37, (1S,5S)—N-(4-((2-aminoethyl)sulfonyl)phenyl)-6-(4-ethoxyphenyl)-9,9-dimethyl-3,6-diazabicyclo[3.2.2]nonane-3-carboxamide], the results for the pIC50 on LOXL2 (setting [5]) and against LOX [1] were 4.70 and 4.59, respectively. For the same compound, the inhibition at 10 µM on LOX [2] is 78%.
As for `CCOc1ccc(N2C[C@H]3CN(C(=O)C(CC(C)C)S(=O)(=O)CCN)C[C@@H]2C(C)(C)C3)cc1` (stereo partly drawn) [Example 40, 2-((2-aminoethyl)sulfonyl)-1-((1S,5S)-6-(4-ethoxyphenyl)-9,9-dimethyl-3,6-diazabicyclo[3.2.2]nonan-3-yl)-4-methylpentan-1-one], the pIC50 on LOXL2 (setting [5]) was 5.96. Besides, the inhibition at 10 µM on LOX [2] (10 uM, DMSO = 0%, BAPN 1 mM = 100% inhibition, inhibitor added 30 min prior to imaging) is 79%.
Take `CCOc1ccc(N2C[C@H]3CN(C(=O)c4cccc(S(=O)(=O)CCN)c4)C[C@@H]2C(C)(C)C3)cc1` [Example 32, (3-((2-aminoethyl)sulfonyl)phenyl)((1S,5S)-6-(4-ethoxyphenyl)-9,9-dimethyl-3,6-diazabicyclo[3.2.2]nonan-3-yl)methanone]: the pIC50 in assay [3] was less than 4.00; in assay [4], less than 4.00; at LOXL2 (setting [6]), 5.52; against LOX [1] it was 4.64.
As for `CCOc1ccc(N2C[C@@H]3C[C@H]2CN3C(=O)C(F)S(=O)(=O)CCN)cc1` (mixture of isomers) [Example 16, 2-((2-aminoethyl)-sulfonyl)-1-((1S,4S)-5-(4-ethoxyphenyl)-2,5-diazabicyclo-[2.2.1]heptan-2-yl)-2-fluoroethan-1-one], at LOXL2 (setting [6]), the negative logarithm of the IC50 (pIC50) was 6.85. Further, the inhibition at 2.5 µM at LOX [2] (2.5 uM (stated in cell), DMSO = 0%, BAPN 1 mM = 100% inhibition, read-out: Cyst LOX (% inhibition) @ 2.5 uM) is 73%.
